Assay results: publication PMC9668928, “Zandelisib (ME-401) in Japanese patients with relapsed or refractory indolent non-Hodgkin’s lymphoma: an open-label, multicenter, dose-escalation phase 1 study” (International Journal of Hematology, 2022)

Tested on: Japanese patients with R/R iNHL
Assay: Phase 1 dose-escalation study: safety and tolerability (TEAEs, DLTs)
Type: in vivo
Source text: Japanese patients aged ≥ 20 years with R/R iNHL histologically confirmed as FL, nodal MZL, extra-nodal MZL of mucosa-associated lymphoid tissue, small lymphocytic lymphoma, lymphoplasmacytic lymphoma, Waldenström’s macroglobulinemia, or equivalent, according to World Health Organization classification, were eligible for this study. Other key eligibility criteria included being PI3K inhibitor therapy-naïve and an Eastern Cooperative Oncology Group performance status of 0 or 1. Further details of inclusion and exclusion criteria are provided in Supplementary Table 1.
This was a multicenter, open-label, dose-escalation, phase 1 study in Japan. All patients received oral zandelisib once daily at the same time each day, at least 1 h before or 2 h after a meal (CS: continuous schedule). Each treatment cycle was 28 days. Definitions of the DLTs described in this study can be found in Supplementary Table 2. The observation period for DLTs was from day 1 of Cycle 1 to day 1 of Cycle 2. Zandelisib was administered until disease progression or unacceptable toxicity. In the event of an AE, patients could be switched to IDT. In the case of disease progression while receiving IDT, patients could be switched back to CS per the investigator’s discretion.
A starting dose of 45 mg was set for investigating patient safety. This study adopted a standard 3 + 3 design. […] If DLTs occurred in 2 or more patients, the study was planned to be suspended pending a safety evaluation. If a DLT occurred in 1 patient, 3 further patients were added to cohort 1. If DLTs occurred in 0/3 or 1/6 patients in cohort 1, dosing in cohort 2 commenced (n = 6; 60 mg/day). If the incidence of DLTs in cohort 2 was ≤ 1/6, the maximum tolerated dose was not determined, and the dose in cohort 2 was to be selected as the recommended Japanese phase 2 dose.
The primary endpoint was the safety [number of patients with treatment-emergent adverse events (TEAEs), based on Common Terminology Criteria for Adverse Events version 5.0] and tolerability (including laboratory values, vital signs, and electrocardiogram performance) of zandelisib in Japanese patients. Hepatobiliary disorder, aspartate/alanine (AST/ALT) increased, diarrhea/colitis, organizing pneumonia, stomatitis, or rash were defined as irAEs in this manuscript. Secondary endpoints included PK (plasma concentrations and PK parameters) and the efficacy of zandelisib. […] The PK parameters for Cycle 1 day 1 and Cycle 2 day 1 were calculated for each patient by non-compartmental analysis. PK parameters included maximum plasma drug concentration (Cmax), area under the plasma concentration–time curve (AUC) from time zero to the last measurable point (AUC0–t), the AUC from time zero to infinity (AUC0-inf), and terminal half-life (t1/2).

CN1CCC(c2ccccc2CC(C)(C)Nc2nc(N3CCOCC3)nc(-n3c(C(F)F)nc4ccccc43)n2)CC1 [zandelisib]
TEAE Oropharyngeal pain, Grade ≥ 3 (45 mg, n = 3): 0 n (%) | TEAE Pancreatitis, All grades (45 mg, n = 3): 1 (33.3) n (%) | TEAE Pancreatitis, Grade ≥ 3 (45 mg, n = 3): 1 (33.3) n (%) | TEAE Pharyngeal paresthesia, All grades (45 mg, n = 3): 0 n (%) | TEAE Pharyngeal paresthesia, Grade ≥ 3 (45 mg, n = 3): 0 n (%) | TEAE Pruritus, All grades (45 mg, n = 3): 0 n (%) | TEAE Pruritus, Grade ≥ 3 (45 mg, n = 3): 0 n (%) | TEAE Psychiatric disorders (SOC), All grades (45 mg, n = 3): 1 (33.3) n (%) | TEAE Psychiatric disorders (SOC), Grade ≥ 3 (45 mg, n = 3): 0 n (%) | TEAE Rash maculopapular, All grades (45 mg, n = 3): 1 (33.3) n (%) | TEAE Rash maculopapular, Grade ≥ 3 (45 mg, n = 3): 0 n (%) | TEAE Rash, All grades (45 mg, n = 3): 1 (33.3) n (%) | TEAE Rash, Grade ≥ 3 (45 mg, n = 3): 0 n (%) | TEAE Renal and urinary disorders (SOC), All grades (45 mg, n = 3): 1 (33.3) n (%) | TEAE Renal and urinary disorders (SOC), Grade ≥ 3 (45 mg, n = 3): 0 n (%) | TEAE Renal impairment, All grades (45 mg, n = 3): 1 (33.3) n (%) | TEAE Renal impairment, Grade ≥ 3 (45 mg, n = 3): 0 n (%) | TEAE Respiratory, thoracic, and mediastinal disorders (SOC), All grades (45 mg, n = 3): 1 (33.3) n (%) | TEAE Respiratory, thoracic, and mediastinal disorders (SOC), Grade ≥ 3 (45 mg, n = 3): 1 (33.3) n (%) | TEAE Skin and subcutaneous tissue disorders (SOC), All grades (45 mg, n = 3): 3 (100.0) n (%) | TEAE Skin and subcutaneous tissue disorders (SOC), Grade ≥ 3 (45 mg, n = 3): 0 n (%) | TEAE Stomatitis, All grades (45 mg, n = 3): 1 (33.3) n (%) | TEAE Stomatitis, Grade ≥ 3 (45 mg, n = 3): 1 (33.3) n (%) | TEAE Subcutaneous abscess, All grades (45 mg, n = 3): 0 n (%) | TEAE Subcutaneous abscess, Grade ≥ 3 (45 mg, n = 3): 0 n (%) | TEAE Tinnitus, All grades (45 mg, n = 3): 1 (33.3) n (%) | TEAE Tinnitus, Grade ≥ 3 (45 mg, n = 3): 0 n (%) | TEAE Urticaria, All grades (45 mg, n = 3): 1 (33.3) n (%) | TEAE Urticaria, Grade ≥ 3 (45 mg, n = 3): 0 n (%) | TEAE Vomiting, All grades (45 mg, n = 3): 0 n (%) | TEAE Vomiting, Grade ≥ 3 (45 mg, n = 3): 0 n (%) | TEAE WBC count decreased, All grades (45 mg, n = 3): 2 (66.7) n (%) | TEAE WBC count decreased, Grade ≥ 3 (45 mg, n = 3): 0 n (%) | Grade 3 irAEs (60 mg): 5 patients | TEAE ALT increased, All grades (60 mg, n = 6): 1 (16.7) n (%) | TEAE ALT increased, Grade ≥ 3 (60 mg, n = 6): 0 n (%) | TEAE AST increased, All grades (60 mg, n = 6): 3 (50.0) n (%) | TEAE AST increased, Grade ≥ 3 (60 mg, n = 6): 0 n (%) | TEAE Abdominal discomfort, All grades (60 mg, n = 6): 1 (16.7) n (%) | TEAE Abdominal discomfort, Grade ≥ 3 (60 mg, n = 6): 0 n (%) | TEAE Abdominal pain upper, All grades (60 mg, n = 6): 0 n (%) | TEAE Abdominal pain upper, Grade ≥ 3 (60 mg, n = 6): 0 n (%) | TEAE Amylase increased, All grades (60 mg, n = 6): 0 n (%) | TEAE Amylase increased, Grade ≥ 3 (60 mg, n = 6): 0 n (%) | TEAE Anemia, All grades (60 mg, n = 6): 0 n (%) | TEAE Anemia, Grade ≥ 3 (60 mg, n = 6): 0 n (%) | TEAE Arthralgia, All grades (60 mg, n = 6): 1 (16.7) n (%) | TEAE Arthralgia, Grade ≥ 3 (60 mg, n = 6): 0 n (%) | TEAE Back pain, All grades (60 mg, n = 6): 0 n (%) | TEAE Back pain, Grade ≥ 3 (60 mg, n = 6): 0 n (%) | TEAE Blepharitis, All grades (60 mg, n = 6): 1 (16.7) n (%) | TEAE Blepharitis, Grade ≥ 3 (60 mg, n = 6): 0 n (%) | TEAE Blood and lymphatic system disorders (SOC), All grades (60 mg, n = 6): 0 n (%) | TEAE Blood and lymphatic system disorders (SOC), Grade ≥ 3 (60 mg, n = 6): 0 n (%) | TEAE Blood creatinine increased, All grades (60 mg, n = 6): 1 (16.7) n (%) | TEAE Blood creatinine increased, Grade ≥ 3 (60 mg, n = 6): 0 n (%) | TEAE Bradycardia, All grades (60 mg, n = 6): 0 n (%) | TEAE Bradycardia, Grade ≥ 3 (60 mg, n = 6): 0 n (%) | TEAE CMV test positive, All grades (60 mg, n = 6): 2 (33.3) n (%) | TEAE CMV test positive, Grade ≥ 3 (60 mg, n = 6): 0 n (%) | TEAE Cardiac disorders (SOC), All grades (60 mg, n = 6): 0 n (%) | TEAE Cardiac disorders (SOC), Grade ≥ 3 (60 mg, n = 6): 0 n (%) | TEAE Conjunctivitis, All grades (60 mg, n = 6): 1 (16.7) n (%) | TEAE Conjunctivitis, Grade ≥ 3 (60 mg, n = 6): 0 n (%) | TEAE Constipation, All grades (60 mg, n = 6): 2 (33.3) n (%) | TEAE Constipation, Grade ≥ 3 (60 mg, n = 6): 0 n (%) | TEAE Cough, All grades (60 mg, n = 6): 1 (16.7) n (%) | TEAE Cough, Grade ≥ 3 (60 mg, n = 6): 0 n (%) | TEAE Decreased appetite, All grades (60 mg, n = 6): 0 n (%) | TEAE Decreased appetite, Grade ≥ 3 (60 mg, n = 6): 0 n (%) | TEAE Diarrhea, All grades (60 mg, n = 6): 2 (33.3) n (%) | TEAE Diarrhea, Grade ≥ 3 (60 mg, n = 6): 2 (33.3) n (%) | TEAE Drug hypersensitivity, All grades (60 mg, n = 6): 1 (16.7) n (%) | TEAE Drug hypersensitivity, Grade ≥ 3 (60 mg, n = 6): 0 n (%) | TEAE Drug-induced liver injury, All grades (60 mg, n = 6): 1 (16.7) n (%) | TEAE Drug-induced liver injury, Grade ≥ 3 (60 mg, n = 6): 1 (16.7) n (%) | TEAE Dry eye, All grades (60 mg, n = 6): 0 n (%) | TEAE Dry eye, Grade ≥ 3 (60 mg, n = 6): 0 n (%) | TEAE Dry skin, All grades (60 mg, n = 6): 1 (16.7) n (%) | TEAE Dry skin, Grade ≥ 3 (60 mg, n = 6): 0 n (%) | TEAE Dysgeusia, All grades (60 mg, n = 6): 0 n (%) | TEAE Dysgeusia, Grade ≥ 3 (60 mg, n = 6): 0 n (%) | TEAE Dyspnea, All grades (60 mg, n = 6): 0 n (%) | TEAE Dyspnea, Grade ≥ 3 (60 mg, n = 6): 0 n (%) | TEAE Ear and labyrinth disorders (SOC), All grades (60 mg, n = 6): 0 n (%) | TEAE Ear and labyrinth disorders (SOC), Grade ≥ 3 (60 mg, n = 6): 0 n (%) | TEAE Eczema, All grades (60 mg, n = 6): 1 (16.7) n (%) | TEAE Eczema, Grade ≥ 3 (60 mg, n = 6): 0 n (%) | TEAE Eosinophil count increased, All grades (60 mg, n = 6): 0 n (%) | TEAE Eosinophil count increased, Grade ≥ 3 (60 mg, n = 6): 0 n (%) | TEAE Erythema multiforme, All grades (60 mg, n = 6): 1 (16.7) n (%) | TEAE Erythema multiforme, Grade ≥ 3 (60 mg, n = 6): 0 n (%) | TEAE Eye disorders (SOC), All grades (60 mg, n = 6): 1 (16.7) n (%) | TEAE Eye disorders (SOC), Grade ≥ 3 (60 mg, n = 6): 0 n (%) | TEAE Flank pain, All grades (60 mg, n = 6): 1 (16.7) n (%) | TEAE Flank pain, Grade ≥ 3 (60 mg, n = 6): 0 n (%) | TEAE GGT increased, All grades (60 mg, n = 6): 1 (16.7) n (%) | TEAE GGT increased, Grade ≥ 3 (60 mg, n = 6): 1 (16.7) n (%) | TEAE Gastrointestinal disorders (SOC), All grades (60 mg, n = 6): 4 (66.7) n (%) | TEAE Gastrointestinal disorders (SOC), Grade ≥ 3 (60 mg, n = 6): 2 (33.3) n (%) | TEAE General disorders and administration site conditions (SOC), All grades (60 mg, n = 6): 0 n (%) | TEAE General disorders and administration site conditions (SOC), Grade ≥ 3 (60 mg, n = 6): 0 n (%) | TEAE Hepatic function abnormal, All grades (60 mg, n = 6): 1 (16.7) n (%) | TEAE Hepatic function abnormal, Grade ≥ 3 (60 mg, n = 6): 1 (16.7) n (%) | TEAE Hepatobiliary disorders (SOC), All grades (60 mg, n = 6): 2 (33.3) n (%) | TEAE Hepatobiliary disorders (SOC), Grade ≥ 3 (60 mg, n = 6): 2 (33.3) n (%) | TEAE Herpes simplex, All grades (60 mg, n = 6): 0 n (%) | TEAE Herpes simplex, Grade ≥ 3 (60 mg, n = 6): 0 n (%) | TEAE Herpes zoster, All grades (60 mg, n = 6): 1 (16.7) n (%) | TEAE Herpes zoster, Grade ≥ 3 (60 mg, n = 6): 0 n (%) | TEAE Hypoesthesia, All grades (60 mg, n = 6): 0 n (%) | TEAE Hypoesthesia, Grade ≥ 3 (60 mg, n = 6): 0 n (%) | TEAE Hypogammaglobulinemia, All grades (60 mg, n = 6): 0 n (%) | TEAE Hypogammaglobulinemia, Grade ≥ 3 (60 mg, n = 6): 0 n (%) | TEAE Immune system disorders (SOC), All grades (60 mg, n = 6): 1 (16.7) n (%) | TEAE Immune system disorders (SOC), Grade ≥ 3 (60 mg, n = 6): 0 n (%)
